# From a melting point compilation (Tetko et al.)
row,melting point,Structure (SMILES)
1,182 °C,ON=Cc1c[nH]cn1
2,34 to 39 °C,O=S(=O)(Cl)c1occc1C1OCCO1
3,5.5 °C,CCOc1cccc2ccccc12
4,102 to 104 °C,O=C(O)c1cnon1
5,213 to 217 °C,CCOC(=O)c1[nH]c2cc(Cl)cc(Cl)c2c1C=O
6,-85 °C,C=CCOC(=O)CC(C)=O
7,295 °C,O=C1OC2(c3ccccc31)c1cc(Br)c(O)c(Br)c1Oc1c2cc(Br)c(O)c1Br
8,160 to 170 °C,O=C1c2ccccc2S(=O)(=O)N1Br
9,169 to 174 °C,Cc1ccc2occ(C=O)c(=O)c2c1
10,204 °C,O=C(NCCc1ccccc1)c1cc([N+](=O)[O-])cc([N+](=O)[O-])c1
11,139 °C,N#CC(=Cc1ccccc1Cl)c1nc2ccccc2s1
12,74 to 77 °C,O=[N+]([O-])c1ccc(S)cc1
13,173 °C,c1ccc(Nc2nc(N3CCOCC3)nc(N3CCOCC3)n2)cc1
14,108 to 110 °C,O=C(OCC1CC1)c1cnc(Cl)nc1C(F)(F)F
15,104 °C,O=C(O)CCN1C(=O)C=CC1=O
16,-20 °C,CCCCCCCCCC(=O)OCC
17,105 °C,COc1cc(C(C)(C)C)c(O)c(C(C)(C)C)c1
18,81 to 85 °C,ClCc1nnc(-c2ccc(Cl)cc2)o1
19,212 °C,Cc1cncc(C(=O)O)c1
20,99 °C,O=[N+]([O-])c1cccc(CS(=O)(=O)Cl)c1
21,84 to 87 °C,CCc1ccc(C(=O)NN)cc1
22,106 to 108 °C,O=S(=O)(Cl)c1ccc(-c2ccccc2)nc1
23,38 to 40 °C,N#Cc1c(C(F)(F)F)cc(Cl)nc1Cl

row,melting point,Structure (SMILES)
1,118 °C,CCOC(=O)C(C)(/C=C1\C(=O)C2(C)CCC1C2(C)C)/C=C1\C(=O)C2(C)CCC1C2(C)C (stereo not drawn)
2,27 °C,CCN(CC)c1ccc(N)cc1
3,128 to 130 °C,CCOC(=O)c1sc(-c2ccc(C)cc2)nc1O
4,200 °C,COC(=O)C=Cc1ccc([N+](=O)[O-])c(C=CC(=O)OC)c1
5,285 to 288 °C,c1cc2ccc1CCc1ccc(cc1)CC2
6,-20 °C,CCCCc1ccccc1O
7,221 to 222 °C,CC1(C)OC2C(CO)OC(n3cnc4c(N)ncnc43)C2O1 (stereo not drawn)
8,92.5 °C,CC/C(=N\O)C1CC2(C)CCC1C2(C)C (stereo not drawn)
9,222 to 225 °C,N#Cc1ccc[nH]c1=O
10,161 to 163 °C,CC(=O)OCC1OC(n2cc(I)c(=O)[nH]c2=O)CC1OC(C)=O (stereo not drawn)
11,43.5 °C,O=C(OC1CCCCC1)C(=O)OC1CCCCC1
12,83 °C,CC(=O)Oc1ccccc1C(=O)OC(=O)c1ccccc1OC(C)=O
13,107 to 113 °C,c1cc(CCc2ccncc2)ccn1
14,7 °C,BrC=Cc1ccccc1
15,118 °C,NS(=O)(=O)C(F)(F)F
16,99 °C,COc1cc(N)c(C#N)cc1OC
17,115 °C,CC(C)c1cc(C(C)C)c(S(N)(=O)=O)c(C(C)C)c1
18,131 °C,NS(=O)(=O)c1ccc(Oc2ccccc2)cc1
19,204 °C,CC(=O)c1nn(-c2ccccc2[N+](=O)[O-])c(=NC(=O)c2ccccc2)s1
20,296 °C,Cn1c2ccccc2n2c(=O)c3ccncc3c(C#N)c12
21,149 °C,NNC(=O)c1ccc(N)c(N)c1
22,78 °C,CC(=O)CC(=O)c1ccc2ccccc2c1
23,31 °C,O=Cc1ccc(F)c(Br)c1

row,melting point,Structure (SMILES)
1,175 to 177 °C,CCOC(=O)c1c(NC(=S)Nc2cccc(Cl)c2)sc2c1CCCC2
2,118 °C,FC(F)(F)N=C1SC(=Nc2ccccc2)N(c2ccccc2)C1=NC(F)(F)F
3,23 °C,CCCCCCCCCCC=CCCCCCCCC(=O)O
4,-151 °C,C=C=O
5,100 to 101 °C,CC1CC(=Cc2ccccc2)C(=O)C(=Cc2ccccc2)C1 (stereo not drawn)
6,298 to 300 °C,CC(C)(C)OC(=O)N1CCN(c2ccc(C(=O)O)cn2)CC1
7,192 to 193 °C,Cc1onc(-c2ccccc2)c1C(=O)O
8,109 °C,Cc1cccc(Br)c1C(=O)O
9,75 °C,CC1=C(c2ccccc2)Cc2ccccc21
10,65 to 68 °C,O=S(=O)(Cl)Cc1ccc(Cl)c(Cl)c1
11,135 to 140 °C,OC1(c2ccc(Cl)c(C(F)(F)F)c2)CCNCC1
12,175 °C,Cc1ccc(S(=O)(=O)NC(=O)NC2CCCCC2)cc1
13,52 °C,Brc1ccc2c3c(cccc13)CC2
14,222 °C,Cc1cc(-c2cc(C)c(O)c(C)c2)cc(C)c1O
15,88 °C,CCCCCCCCCCCCCCCCCCCCCCCCCCCCCCO
16,171 to 173 °C,Nc1nnc(Cc2ccccc2)[nH]1
17,40 °C,COc1ccc(OC)c(N=C=O)c1
18,89.8 °C,CC(C)OC(=O)C1(S(=O)(=O)c2ccc(Cl)cc2)CC1
19,38 to 40 °C,Ic1ccc(Cc2ccccc2)cc1
20,83 °C,Clc1cc(Cl)c(-c2c(Cl)cc(Cl)c(Cl)c2Cl)cc1Cl
21,203 to 207 °C,Nc1ccc(NC(=O)c2ccc(N)cc2)cc1
22,192 °C,Cc1ccnc(SCC(=O)O)n1
23,217 to 220 °C,ClC1=C(Cl)C2(Cl)C3C(c4ccccc4C4C3C3(Cl)C(Cl)=C(Cl)C4(Cl)C3(Cl)Cl)C1(Cl)C2(Cl)Cl (stereo not drawn)

row,melting point,Structure (SMILES)
1,108 to 111 °C,O=C(Cl)c1csc(-c2cccc(Cl)c2Cl)n1
2,98 to 100 °C,COC(=O)c1cncc(Br)c1
3,96 to 98 °C,OCc1ccc(N2CCOCC2)cc1
4,300 °C,O=C(CI)NCCNc1cccc2c(S(=O)(=O)O)cccc12
5,216 °C,CCC1(O)C(=O)OCc2c1cc1n(c2=O)Cc2cc3c(CN(C)C)c(O)ccc3nc2-1 (stereo not drawn)
6,72 to 74 °C,CC(=NO)c1ccc(F)cc1
7,158 to 162 °C,O=C(O)C1OC(O)C(O)C(O)C1O (stereo not drawn)
8,195 °C,Cc1cc2c(s1)=Nc1ccccc1NC=2N1CCN(C)CC1
9,-48.3 °C,C/C=C/CCCCCCCC
10,257 °C,N#Cc1c(N)cc(N)nc1Br
11,142 °C,O=C1OC(OC2OC(=O)C(Cl)=C2Cl)C(Cl)=C1Cl (stereo not drawn)
12,35 °C,CCCCCCCCOc1ccc(C(=O)OC)cc1
13,250 °C,O=c1[nH][nH]c(=O)[nH]1
14,270 °C,CCC1Nc2cc(Cl)c(S(N)(=O)=O)cc2S(=O)(=O)N1 (stereo not drawn)
15,300 °C,O=C1c2ccccc2C(=C2c3ccccc3C(=O)c3ccccc32)c2ccccc21
16,178 °C,CC1(C)C=Cc2c(ccc3c2OC2c4ccc(O)cc4OCC32)O1 (stereo not drawn)
17,94 to 98 °C,O=C(c1ccc(C(F)(F)F)cc1)c1cccc(C(F)(F)F)c1
18,113 to 115 °C,Cc1cc(C)n(C(N)=O)n1
19,70 °C,C#CCCCCN1C(=O)c2ccccc2C1=O
20,35 °C,Cc1ccc(CO)cc1F
21,-20 °C,NCc1ccccn1
22,47 °C,CCOC(=O)N1CCN(C(=O)OCC)CC1
23,33 to 38 °C,COC(=O)c1cccc(Cl)c1Cl

row,melting point,Structure (SMILES)
1,7 °C,CCCc1ccccc1O
2,260 °C,CC(=O)Nc1nc(O)c2nc[nH]c2n1
3,110 °C,COc1ccc(C(F)(F)F)cc1C(=O)O
4,37 °C,Cc1cccc(O)c1[N+](=O)[O-]
5,111 °C,ICCc1ccc(CCI)cc1
6,202 °C,CC(C)C1=C(O)C(=O)C2=C(C1=O)[C@@H]1O[C@@H]1[C@H]1C(C)(C)CCC[C@]21C
7,74 to 76 °C,Cn1c(CO)cc2occc21
8,88 °C,C[Si](C)(C)OC1(C#N)c2ccccc2CCc2ccccc2C1(C#N)O[Si](C)(C)C (stereo not drawn)
9,180 °C,Cc1cc(C(N)=O)ccc1Br
10,180 to 185 °C,CC1NC(C(=O)O)CS1 (mixture of isomers)
11,163 to 166 °C,O=C(O)C=Cc1cccc(Cl)c1
12,196 °C,COc1cc(C=C2C(=O)NN=C2c2c(O)c3ccccc3n(C)c2=O)cc(OC)c1OC
13,125 °C,O=S(=O)(O)c1ccc2cc(O)ccc2c1
14,230 to 232 °C,COc1ccc(NC(=S)NN=Cc2c(-c3ccc(Cl)cc3)[nH]c3ccccc23)cc1
15,119 to 120 °C,CC(C)c1nsc(N)n1
16,189 to 193 °C,CNS(=O)(=O)O
17,188 °C,CC(Cc1cc(=O)c2c3c(c4ccccc4c2o1)OC1CC(=O)OC31)O[Si](C)(C)C(C)(C)C (stereo not drawn)
18,338 to 340 °C,O=c1n2ccccc2nc2nc3ccccc3n12
19,135 to 140 °C,CC1(C)OC(=O)C(c2ccccc2)C(=O)O1
20,34 °C,O=C1CCCCCCCC1
21,132 to 135 °C,CC(=O)OC1COC(C#N)C(OC(C)=O)C1OC(C)=O (stereo not drawn)
22,4 °C,Cc1ccc(C(=O)C(F)(F)C(F)(F)F)cc1

row,Structure (SMILES),melting point
1,CN1CCN(c2cccc([N+](=O)[O-])c2)CC1,60 to 62 °C
2,CN1CCN(c2ccc(C=O)cc2)CC1,57 to 60 °C
3,O=C1NC(=S)NC(=O)C1=NNc1cccc([N+](=O)[O-])c1,330 °C
4,CC1(C(=O)O)CCCC2(C)c3cc(O)ccc3CCC12 (stereo not drawn),194 °C
5,COC(=O)C1=C(C(=O)OC)C2(CCl)c3ccccc3C1c1ccccc12,169 °C
6,O=c1c2ccccc2[nH]c(=S)n1-c1ccccc1,309 to 311 °C
7,CNC(=O)ON=C(SC)C(=O)N(C)C,101 °C
8,CCNS(=O)(=O)C(F)(F)C(F)(F)C(F)(F)C(F)(F)C(F)(F)C(F)(F)C(F)(F)C(F)(F)F,96 °C
9,O=C(CCl)Nc1ccc(Cl)cc1C(=O)c1ccccc1Cl,161 to 163 °C
10,C=CC(=C)Cl,-130 °C
11,N#CSC#N,63.5 °C
12,CSC(=O)c1c(C(F)F)nc(C(F)(F)F)c(C(=O)SC)c1CC(C)C,65 °C
13,Cc1c(N)cccc1N,106 °C
14,COc1ccc(C(N)C(N)c2ccc(OC)cc2)cc1 (stereo not drawn),148 to 152 °C
